Article PMC4569848 (Nature Communications, 2015)
Entries after “also recorded” stand apart in the source; their conditions may differ. No end group written: not given here. *: point of attachment. sulfate = O=S(=O)(O)*

Key:
Format in all cases: cell-based
[1] = tested on: β2AR; experiment: Intramolecular BRET of Luc-β-arrestin-1-YFP (arrestin conformational change); details: HEK293 cells, 10 μM ISO, 10 min
Procedure: (a) Activation of β2-AR-induced conformational changes in β-arrestin-1 as measured using intramolecular BRET. Plasmids encoding a β-arrestin-1 BRET biosensor (Luc-β-arrestin-1-YFP) and Flag-β2-AR were transiently co-transfected in HEK293 cells. After starvation, the cells were stimulated with ISO (10 μM) for 10 min. The effects of GRK phosphorylation of β2-AR on ISO-induced β-arrestin-1 conformational change were probed using siRNA-mediated GRK knockdown.
The pcDNA3.0-Flag-β2AR (Flag-β2AR), β-arrestin-1-YFP, pcDNA3.1-Luc-β-arrestin-2-YFP and pCDNA3.1-Clathrin constructs were generous gifts from Dr Lefkowitz at Duke University[21][32]. […] To monitor the β-arrestin-1 conformational change, the BRET sensor for β-arrestin-1 (pcDNA3.1-Luc-β-arrestin-1-YFP) was created by in-Fusion of the β-arrestin-1-YFP plasmid with the pcDNA3.1-Luc-β-arrestin-2-YFP construct[57][58]. […] All of the constructs and mutations were verified by DNA sequencing.
HEK 293 cells were attained from ATCC and cultured at 37 °C and 5% CO2 in DMEM containing 10% (v/v) fetal bovine serum and penicillin–streptomycin (5,000 IU l^−1). GRK2 or GRK6 expression was silenced in HEK 293 cells using a specific small interfering RNA (siRNA) duplex.

[2] = tested on: β2AR; experiment: Western blot of SRC activation (phospho-SRC 416); details: HEK293 cells, ISO 1, 5 and 15 min
Procedure: (b) A representative western blotting is shown for the effects of knockdown of specific GRKs in β2-AR-mediated proto-oncogene tyrosine-protein kinase (SRC) activation. Left panel: HEK293 cells that were transiently transfected with Flag-β2-AR were stimulated with ISO for 1, 5 and 15 min. To examine the roles of GRK2 and GRK6 in β2-AR-mediated SRC activation, siRNAs that were selective for specific GRKs were transfected into the cells. A western blot representative of at least three independent experiments is shown on the left. Right panel: western blot signals of phospho-SRC 416 (a) were quantified using densitometry and are expressed as fold change versus basal level. […] (a,b) At least three independent experiments were performed. #P<0.05, ISO-stimulated cells are compared with unstimulated cells. *P<0.05; **P<0.01; ***P<0.005; GRK siRNA-treated cells are compared with control siRNA-treated cells.
GRK2 or GRK6 expression was silenced in HEK 293 cells using a specific small interfering RNA (siRNA) duplex. […]
To examine the roles of GRK2 and GRK6 in β2-AR-mediated SRC activation, selective siRNA towards specific GRK and Flag-β2AR plasmids were co-transfected into HEK-293 cells. […] Lysate protein concentrations were determined using the Bradford protein assay. […] SRC-416 phosphorylation was detected using a specific antibody.

[3] = tested on: β2AR; experiment: Co-IP β-arrestin-1/clathrin downstream of β2AR; details: HEK293, 10 μM ISO, 15 min, β-arrestin-1 R25A (site 4) vs wild type
Source text: (§3) (a) The phospho-binding pattern of β-arrestin-1 determines selective arrestin functions downstream of β2AR in cells. […] The β-arrestin-1 was immunoprecipitated by HA-antibody-conjugated agarose and the formation of the β-arrestin-1/clathrin or β-arrestin-1/SRC was detected by specific clathrin or SRC antibodies. […] (a–c) Representative western blottings from at least three experiments are shown on the left and the statistics from at least three independent experiments are shown on the right. *P<0.05, **P<0.01; the effects of mutants were compared with the wild type.
(§4) To examine the effects of β-arrestin-1 mutants on ISO, CCK-8s or somatostatin induced clathrin/β-arrestin-1 or SRC/β-arrestin-1 complex formation downstream of β2AR, CCKAR and SSTR2; HEK293 cells were co-transfected with Flag-β2AR/HA-β-arrestin-1, Flag-CCKAR/HA-β-arrestin-1 or Flag-SSTR2/HA-β-arrestin-1, respectively. Different HA-β-arrestin-1 mutations were used to detect the contribution of the phosphate-binding sites of β-arrestin-1 during the arrestin/clathrin or arrestin/SRC complex formatin. […] Immune complexes were analysed by western blotting with specific antibody towards clathrin or pSRC416, respectively.Representative western blots from at least three experiments are shown in Fig. 8.

[4] = tested on: β2AR; experiment: Co-IP β-arrestin-1/SRC downstream of β2AR; details: HEK293, 10 μM ISO, 15 min, β-arrestin-1 R7A (site 5) vs wild type
Source text: as §3, §4

[5] = tested on: β2AR
Procedure: To examine the effects of β-arrestin-1 mutants on ISO-induced β2AR/β-arrestin-1 complex formation, the co-immunoprecipitation experiment was performed[61][62]. In detail, HEK293 cells were co-transfected with Flag-β2AR and β-arrestin-1-YFP mutants. Twenty-four hours after transfection, the cells were starved for 4 h and then stimulated with ISO (10 μM) for 10 min. The cell lysates were subjected to immunoprecipitation using anti-FLAG beads incubated overnight at 4 °C. Immune complexes were analysed by western blotting with specific antibodies. The associated β-arrestin 1-YFP was detected using an anti-YFP antibody.

[6] = tested on: SSTR2; experiment: Co-IP β-arrestin-1/clathrin downstream of SSTR2; details: HEK293, 1 μM somatostatin
Procedure: (§1) Figure 8 Phospho-pattern-selective mechanisms of specific arrestin functions are common for at least a subset of GPCRs. (a) The phospho-binding pattern of β-arrestin-1 determines selective arrestin functions downstream of β2AR in cells. HEK293 cells were co-transfected with Flag-β2AR and wild-type HA-β-arrestin-1 or specific phosphate-binding site mutants (R25A for site 4 and R7A for site 5), then stimulated with 10 μM isoproterenol (ISO) for 15 min. The β-arrestin-1 was immunoprecipitated by HA-antibody-conjugated agarose and the formation of the β-arrestin-1/clathrin or β-arrestin-1/SRC was detected by specific clathrin or SRC antibodies. […] (b,c) The phospho-binding pattern of β-arrestin-1 determines selective arrestin interaction with clathrin or SRC downstream of somatostatin receptor 2 (SSTR2, Fig. 4c) and cholecystokinin A receptor (CCKAR, Fig. 4d). […]
(§2) To examine the effects of β-arrestin-1 mutants on ISO, CCK-8s or somatostatin induced clathrin/β-arrestin-1 or SRC/β-arrestin-1 complex formation downstream of β2AR, CCKAR and SSTR2; HEK293 cells were co-transfected with Flag-β2AR/HA-β-arrestin-1, Flag-CCKAR/HA-β-arrestin-1 or Flag-SSTR2/HA-β-arrestin-1, respectively. […] Immune complexes were analysed by western blotting with specific antibody towards clathrin or pSRC416, respectively.Representative western blots from at least three experiments are shown in Fig. 8.

[7] = tested on: SSTR2; experiment: Co-IP β-arrestin-1/SRC downstream of SSTR2; details: HEK293, 1 μM somatostatin
Procedure: as §1, §2

[8] = tested on: CCKAR; experiment: Co-IP β-arrestin-1/clathrin downstream of CCKAR; details: HEK293, 2 μM CCK-8s
Procedure: as §1, §2

[9] = tested on: CCKAR; experiment: Co-IP β-arrestin-1/SRC downstream of CCKAR; details: HEK293, 2 μM CCK-8s, 15 min
Procedure: as §1, §2

Molecule: CC(C)NCC(O)c1ccc(O)c(O)c1 (stereo not drawn) [ISO, isoproterenol]
- BRET signal of Rluc-β-arrestin-1-YFP ([1]; Flag-β2AR): significantly increased the BRET signal
- BRET signal of Rluc-β-arrestin-1-YFP, GRK2 knockdown ([1]; GRK2 siRNA): significantly reduced by the knockdown of either GRK2 or GRK6
- BRET signal of Rluc-β-arrestin-1-YFP, GRK6 knockdown ([1]; GRK6 siRNA): significantly reduced by the knockdown of either GRK2 or GRK6
- SRC activation, role of GRK2 (knockdown) ([2]; GRK2 siRNA): GRK2 is a negative regulator of β2-AR-induced SRC activation
- SRC activation, role of GRK6 (knockdown) ([2]; GRK6 siRNA): GRK6 is required for SRC activation downstream of β2-AR activation
- β-arrestin-1/clathrin complex formation, R25A [3]: selectively impaired β-arrestin-1/clathrin interaction downstream of β2AR activation; also recorded: selectively disrupted the ISO-induced β-arrestin-1/clathrin complex formation
- β-arrestin-1/SRC complex formation, R7A [4]: specifically eliminated ISO-induced β-arrestin-1/SRC association; also recorded: the ISO-induced β-arrestin-1/SRC complex formation
- β2AR/β-arrestin-1 complex formation with β-arrestin-1 mutants [5]: All of the tested β-arrestin-1 mutants bound to β2AR after ISO stimulation

Molecule: somatostatin
- β-arrestin-1/clathrin recruitment ([6]; 15 min): promoted both clathrin and SRC recruitment for β-arrestin-1
- β-arrestin-1/clathrin interaction, R25A ([6]; β-arrestin-1 R25A vs wild type): selectively disrupted β-arrestin-1/clathrin interaction
- β-arrestin-1/SRC recruitment ([7]; 15 min): promoted both clathrin and SRC recruitment for β-arrestin-1
- β-arrestin-1/SRC complex formation, R7A ([7]; β-arrestin-1 R7A vs wild type): impaired the β-arrestin-1/SRC complex formation

Molecule: CCK-8s: CCKAR agonist, 2 μM (DY(sulfate)MGWMDF; ends and bridges not checked; UniProt P06307 96-103, looked up)
- β-arrestin-1/clathrin interaction ([8]; 15 min): only promoted β-arrestin-1/clathrin interaction
- β-arrestin-1/clathrin interaction, R25A ([8]; β-arrestin-1 R25A vs wild type): selectively disrupted β-arrestin-1/clathrin interaction
- β-arrestin-1/SRC recruitment [9]: only promoted β-arrestin-1/clathrin interaction
